Assay results as given in patent publication US11793861B2, “PTH prodrugs” (ASCENDIS PHARMA BONE DISEASES A/S, priority 2016, dated 2023).

Columns and labels:
[1] = system: thyroparathyroidectomised (TPTx) rats; assay: Pharmacodynamic actions in thyroparathyroidectomised (TPTx) rats, 28-days daily subcutaneous injections; type: in vivo, SD rats
Protocol: Quantitative measurements of serum calcium (sCa), urinary calcium and serum phosporous (sP) were performed on a Roche-Hitachi P800 modular biochemistry instrument.
Rats subjected to thyroparathyroidectomy (TPTx) by blunt dissection are unable to produce parathyroid hormone, PTH, the major regulator of calcium homeostasis. […] Additionally, one group of sham operated rats (n=9) representing normophysiological background control were also given vehicle. Serum calcium (sCa) and phosporous (sP) levels in the animals were measured pre- and post-dose on days 1, 6, 12 and 27. Moreover, bone turnover markers (P1NP and CTx) were measured and bone quality assessed by ex vivo pQCT.

[2] = cited from earlier work

PTH(1-84): Natpara®, PTH(1-84), approved by the FDA for hypoparathyroidism; the current standard of care (SEQ ID NO:1)
trabecular BMD compared to both control groups ([1]; 28 days treatment): significant increase | effect on serum phosphorous (sP) ([1]; TPTx rats, daily sc): minimal decrease | effect on serum calcium (sCa) ([1]; TPTx rats, daily sc, 18 at […], PTH(1-84) at 7.3 nmol/kg/d): did not lead to increase in sCa | serum calcium (sCa) at day 12 ([1]; TPTx rats, 18 at […], PTH(1-84) at 7.3 nmol/kg/d, sc): 8.1 mg/dL | trabecular and cortical BMD in vertebrae ([1]; following 28 days of treatment): anabolic effect | PTH Cmax ([2]; currently approved doses): 0.3 ng/mL | control of urinary calcium excretion ([2]; daily injections, FDA review): failed to provide adequate control | incidence of hypercalcemia and hypocalcemia compared to placebo ([2]; in vivo): did not improve
